From PubChem BioAssay (NCI)
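Five concentrations, 48 hours, 96-well plates. At the GI50, growth is halved. TGI: concentration producing complete growth inhibition.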

How the values were obtained:
Assay in all cases: growth of human tumour cells (NCI), 48 h
HCT-116 colon = tested on: HCT-116 colon
OVCAR-8 ovarian = tested on: OVCAR-8 ovarian
A498 renal = tested on: A498 renal
U251 CNS = tested on: U251 CNS
K-562 leukemia = tested on: K-562 leukemia
NCI-H23 lung = tested on: NCI-H23 lung
NCI-H460 lung = tested on: NCI-H460 lung
EKVX NSCLC = tested on: EKVX NSCLC
NCI-H522 lung = tested on: NCI-H522 lung
MDA-MB-231 breast = tested on: MDA-MB-231 breast
RPMI-8226 leukemia = tested on: RPMI-8226 leukemia
SK-OV-3 ovarian = tested on: SK-OV-3 ovarian
OVCAR-5 ovarian = tested on: OVCAR-5 ovarian
SF-539 CNS = tested on: SF-539 CNS
M14 melanoma = tested on: M14 melanoma
NCI/ADR-RES ovarian = tested on: NCI/ADR-RES ovarian
SW-620 colon = tested on: SW-620 colon
PC-3 prostate = tested on: PC-3 prostate
UACC-257 melanoma = tested on: UACC-257 melanoma
CCRF-CEM leukemia = tested on: CCRF-CEM leukemia
HCC-2998 colon = tested on: HCC-2998 colon
A549 NSCLC = tested on: A549 NSCLC
IGROV1 ovarian = tested on: IGROV1 ovarian
LOX IMVI melanoma = tested on: LOX IMVI melanoma
786-0 renal = tested on: 786-0 renal
KM12 colon = tested on: KM12 colon
SNB-75 CNS = tested on: SNB-75 CNS
SNB-19 CNS = tested on: SNB-19 CNS
MCF7 breast = tested on: MCF7 breast
SK-MEL-5 melanoma = tested on: SK-MEL-5 melanoma
HS 578T breast = tested on: HS 578T breast
SF-295 CNS = tested on: SF-295 CNS
OVCAR-4 ovarian = tested on: OVCAR-4 ovarian
HOP-62 NSCLC = tested on: HOP-62 NSCLC
HCT-15 colon = tested on: HCT-15 colon
UO-31 renal = tested on: UO-31 renal
RXF 393 renal = tested on: RXF 393 renal
MOLT-4 leukemia = tested on: MOLT-4 leukemia
SR leukemia = tested on: SR leukemia
COLO 205 colon = tested on: COLO 205 colon
SK-MEL-28 melanoma = tested on: SK-MEL-28 melanoma
SF-268 CNS = tested on: SF-268 CNS
TK-10 renal = tested on: TK-10 renal
SK-MEL-2 melanoma = tested on: SK-MEL-2 melanoma
NCI-H226 lung = tested on: NCI-H226 lung
BT-549 breast = tested on: BT-549 breast
MDA-MB-435 = tested on: MDA-MB-435
SN12C renal = tested on: SN12C renal
OVCAR-3 ovarian = tested on: OVCAR-3 ovarian
T-47D breast = tested on: T-47D breast
UACC-62 melanoma = tested on: UACC-62 melanoma
DU-145 prostate = tested on: DU-145 prostate
HT29 colon = tested on: HT29 colon
HOP-92 NSCLC = tested on: HOP-92 NSCLC
HL-60(TB) leukemia = tested on: HL-60(TB) leukemia

Work on `C=C(C=O)C1CC(=O)C(C(=O)OC)[C@@H]2O[C@@](C)(CC2=O)C[C@@H]2OC(=O)[C@]3(O[C@@H]23)[C@@H](C(=O)OC)C1` (stereo not given in full) yielded a GI50 (HCT-116 colon) of 14.7 µM, a TGI (HCT-116 colon) of 33.6 µM and a GI50 (OVCAR-8 ovarian) of 17.9 µM. The TGI (OVCAR-8 ovarian) was 62.4 µM, the GI50 (A498 renal) was 20.7 µM and the TGI (A498 renal) was 47 µM. It also gave a GI50 (U251 CNS) of 14.6 µM, a TGI (U251 CNS) of 39.8 µM and a GI50 (K-562 leukemia) of 20.1 µM. It also gave a TGI (K-562 leukemia) greater than 100 µM, a GI50 (NCI-H23 lung) of 18.3 µM and a TGI (NCI-H23 lung) of 42.8 µM. The GI50 (NCI-H460 lung) was 24.4 µM, the TGI (NCI-H460 lung) was 70.8 µM and the GI50 (EKVX NSCLC) was 27.2 µM. The TGI (EKVX NSCLC) was 95.1 µM, the GI50 (NCI-H522 lung) was 7.03 µM and the TGI (NCI-H522 lung) was 41.5 µM. The GI50 (MDA-MB-231 breast) was 22.1 µM, the TGI (MDA-MB-231 breast) was 57.5 µM and the GI50 (RPMI-8226 leukemia) was 4.16 µM. For the same molecule, the TGI (RPMI-8226 leukemia) was 21.8 µM, the GI50 (SK-OV-3 ovarian) was 60.6 µM and the TGI (SK-OV-3 ovarian) was greater than 100 µM. For the same molecule, the GI50 (OVCAR-5 ovarian) was 23.1 µM, the TGI (OVCAR-5 ovarian) was 51.2 µM and the GI50 (SF-539 CNS) was 18 µM. The TGI (SF-539 CNS) was 61.2 µM, the GI50 (M14 melanoma) was 14.8 µM and the TGI (M14 melanoma) was 30.4 µM. The GI50 (NCI/ADR-RES ovarian) was 46.4 µM, the TGI (NCI/ADR-RES ovarian) was greater than 100 µM and the GI50 (SW-620 colon) was 12.2 µM. The TGI (SW-620 colon) was 47.3 µM, the GI50 (PC-3 prostate) was 19.3 µM and the TGI (PC-3 prostate) was 57.6 µM. It also gave a GI50 (UACC-257 melanoma) of 10.2 µM, a TGI (UACC-257 melanoma) of 28.6 µM and a GI50 (CCRF-CEM leukemia) of 5.81 µM. The TGI (CCRF-CEM leukemia) was greater than 100 µM, the GI50 (HCC-2998 colon) was 14.4 µM and the TGI (HCC-2998 colon) was 30.8 µM. The GI50 (A549 NSCLC) was 29 µM, the TGI (A549 NSCLC) was 67.1 µM and the GI50 (IGROV1 ovarian) was 4.56 µM. For the same molecule, the TGI (IGROV1 ovarian) was 48.3 µM, the GI50 (LOX IMVI melanoma) was 7.94 µM and the TGI (LOX IMVI melanoma) was 21.3 µM. For the same molecule, the GI50 (786-0 renal) was 19.3 µM, the TGI (786-0 renal) was 51 µM and the GI50 (KM12 colon) was 19.2 µM. It also gave a TGI (KM12 colon) of 45 µM, a GI50 (SNB-75 CNS) of 31 µM and a TGI (SNB-75 CNS) greater than 100 µM. It also gave a GI50 (SNB-19 CNS) of 38.3 µM, a TGI (SNB-19 CNS) greater than 100 µM and a GI50 (MCF7 breast) of 11.1 µM. It also gave a TGI (MCF7 breast) of 28 µM, a GI50 (SK-MEL-5 melanoma) of 17 µM and a TGI (SK-MEL-5 melanoma) of 38.5 µM. For the same molecule, the GI50 (HS 578T breast) was 32.8 µM, the TGI (HS 578T breast) was greater than 100 µM and the GI50 (SF-295 CNS) was 11.2 µM. For the same molecule, the TGI (SF-295 CNS) was 28.6 µM, the GI50 (OVCAR-4 ovarian) was 30 µM and the TGI (OVCAR-4 ovarian) was 92.4 µM. The GI50 (HOP-62 NSCLC) was 25.6 µM, the TGI (HOP-62 NSCLC) was 58.8 µM and the GI50 (HCT-15 colon) was 16.2 µM. The TGI (HCT-15 colon) was 38.5 µM, the GI50 (UO-31 renal) was 19 µM and the TGI (UO-31 renal) was 48.9 µM. For the same molecule, the GI50 (RXF 393 renal) was 9.3 µM, the TGI (RXF 393 renal) was 33.6 µM and the GI50 (MOLT-4 leukemia) was 4.2 µM. The TGI (MOLT-4 leukemia) was greater than 100 µM, the GI50 (SR leukemia) was 2.63 µM and the TGI (SR leukemia) was 7.96 µM. It also gave a GI50 (COLO 205 colon) of 17.2 µM, a TGI (COLO 205 colon) greater than 100 µM and a GI50 (SK-MEL-28 melanoma) of 20.2 µM. The TGI (SK-MEL-28 melanoma) was 66.5 µM, the GI50 (SF-268 CNS) was 21.5 µM and the TGI (SF-268 CNS) was 65.9 µM. The GI50 (TK-10 renal) was 24.7 µM, the TGI (TK-10 renal) was 42 µM and the GI50 (SK-MEL-2 melanoma) was 15.6 µM. For the same molecule, the TGI (SK-MEL-2 melanoma) was 52.9 µM, the GI50 (NCI-H226 lung) was 24.9 µM and the TGI (NCI-H226 lung) was greater than 100 µM. For the same molecule, the GI50 (BT-549 breast) was 21.7 µM, the TGI (BT-549 breast) was 55 µM and the GI50 (MDA-MB-435) was 14.3 µM. It also gave a TGI (MDA-MB-435) of 33 µM, a GI50 (SN12C renal) of 18.7 µM and a TGI (SN12C renal) of 50.4 µM. For the same molecule, the GI50 (OVCAR-3 ovarian) was 12.8 µM, the TGI (OVCAR-3 ovarian) was 32.8 µM and the GI50 (T-47D breast) was 33.7 µM. For the same molecule, the TGI (T-47D breast) was greater than 100 µM, the GI50 (UACC-62 melanoma) was 18.1 µM and the TGI (UACC-62 melanoma) was 44.8 µM. It also gave a GI50 (DU-145 prostate) of 28.9 µM, a TGI (DU-145 prostate) greater than 100 µM and a GI50 (HT29 colon) of 29 µM. For the same molecule, the TGI (HT29 colon) was greater than 100 µM, the GI50 (HOP-92 NSCLC) was 16.5 µM and the TGI (HOP-92 NSCLC) was 37.9 µM. It also gave a GI50 (HL-60(TB) leukemia) of 20.1 µM and a TGI (HL-60(TB) leukemia) of 53.5 µM.
